Patent publication US10766899B2, “Methods for preparing substituted imidazo[4,5-b]pyrazines” (Cytokinetics, Inc., priority 2006, dated 2020)

Experiments:
SKM MF = SKM MF AC1.4: ATPase of skeletal sarcomeric proteins (actin, tropomyosin, troponin complex, myosin), PK/LDH coupled enzyme system; type: biochemical; details: screen at pCa=6.5, † mean value, ‡ median value
Description: For example, test compounds can be assayed in a highly parallel fashion by using multiwell plates by placing the compounds either individually in wells or testing them in mixtures. Assay components including the target protein complex, coupling enzymes and substrates, and ATP can then be added to the wells and the absorbance or fluorescence of each well of the plate can be measured with a plate reader.
In some embodiments, the method uses a 384 well plate format and a 25 μL reaction volume. A pyruvate kinase/lactate dehydrogenase coupled enzyme system (Huang T G and Hackney D D. (1994) J Biol Chem 269(23):16493-501) can be used to measure the rate of ATP hydrolysis in each well. As will be appreciated by those in the art, the assay components are added in buffers and reagents. The incubation periods can be optimized to give adequate detection signals over the background. The assay can be done in real time giving the kinetics of ATP hydrolysis which increases the signal to noise ratio of the assay.
Actin was purified by first preparing an ether powder of cardiac muscle (Zot H G and Potter J D. (1981) Preparative Biochemistry 11:381-395) as described below. Subsequently, actin was cycled between the filamentous and soluble state through rounds of centrifugation and dialysis (Spudich J A and Watt S. (1971) J. Biol. Chem. 246:4866-4871). It was stored in the filamentous state at 4° C.
Tropomyosin was extracted from the ether powder and separated from the other proteins based on pH dependent precipitations followed by successive ammonium sulfate cuts at 53% and 65% (Smillie L B. (1981) Methods Enzymol 85 Pt B:234-41). The troponins were isolated as an intact complex of TnC, TnT, and TnI. Ether powder is extracted in a high salt buffer. Successive ammonium sulfate cuts of 30% and 45% were done; the precipitate was solubilized by dialysis into a low salt buffer and then further purified on a DEAE Toyopearl column with a 25-350 mM KCl gradient.
Just prior to screening, the actin, tropomyosin, and troponin complex are mixed together in the desired ratio (e.g., 7:1:1) to achieve maximal calcium regulation of the actin filament. The screen is conducted at a pCa=6.5. This calcium concentration is in the physiological range during muscle contraction.
To measure the generation of ADP during the reaction, a pyruvate kinase/lactate dehydrogenase/NADH coupled enzyme system (PK/LDH) is added to the actin. The myosin is kept separately. The plates are read in real time so that kinetic curves are obtained. These compounds are in DMSO and were already spotted onto the bottoms of 384 well plates at 10 to 40 μg/ml final concentration.
• 1. Obtain ˜1000 g skeletal muscle, such as rabbit skeletal muscle. • 2. Grind twice; extract with 2 L solution A for 15 min while stirring; add 4 L cold H2O, filter through gauze; dilute with cold H2O to ionic strength of 0.04, (about 10-fold); let settle for 3 h; collect precipitate at 7,000 rpm in GSA rotor for 15 min. • 3. Disperse pellet in 220 ml solution B; dialyze overnight against 6 L solution C; slowly add ˜400 ml equal volume cold distilled H2O; stir for 30 min; centrifuge at 10,000 rpm for 10 min in GSA rotor. • 4. Centrifuge supernatant at 19,000 rpm for 1 h. • 5. Dilute supernatant to ionic strength of 0.04 (˜8-fold); let myosin settle overnight; collect about 5-6 L fluffy myosin precipitate by centrifuging at 10,000 rpm for 10 min in GSA rotor. • 6. Resuspend pellet in minimal volume of solution G; dialyze overnight against 2 L solution D; centrifuge at 19,000 rpm for 2 h, in cellulose nitrate tubes; puncture tubes and separate myosin from fat and insoluble pellet. • 7. Dilute supernatant to 5-10 mg/ml and dialyze against solution E extensively, load onto DEAE-sephadex column. • 8. […]

[1] = system: rats with induced experimental autoimmune myasthenia gravis (EAMG); experiment: Validation of EAMG model (neostigmine), grip strength; type: in vivo, Sprague-Dawley rats; details: 0.2 mg/kg intraperitoneally, 5 minutes after treatment
Description: Female Sprague-Dawley rats (200-300 g) were purchased from Charles River Laboratories and given a minimum 72 hours acclimation period. Experimental autoimmune Myasthenia Gravis (EAMG) was induced by a single intra-peritoneal injection of 500 μg/kg of AChRα1/3/5 antibody (SC-58604, Santa Cruz Biotechnology, CA, USA). Fore- and hind-limb grip measurements were acquired in triplicate with a 5 kg Dual Sensor Grip Meter (Columbus Instruments, Ohio, USA) as described in Example 1. Baseline body weight and fore- and hind-grip strength of animals was measured before inducing EAMG.
Selected rats were divided into vehicle and compound treated groups. Neostigmine (an acetylcholinesterase inhibitor that is used clinically for the assessment and treatment of myasthenia gravis) was administered to test animals intraperitoneally at 0.2 mg/kg. After dosing, rats were reassessed for grip strength at 5, 10 and 20 minutes.

SKM MF AC1.4 (SKM MF) | Molecule | other results
0.4 µM | CCC(CC)n1c(O)nc2ncc(SC)nc21 [6-(methylthio)-1-(pentan-3-yl)-1H-imidazo[4,5-b]pyrazin-2-ol] | –
0.8 µM | CC[C@H](C)n1c(O)nc2ncc(Br)nc21 [(S)-6-bromo-1-sec-butyl-1H-imidazo[4,5-b]pyrazin-2-ol] | –
10.4 µM | Oc1nc2ncc(Br)nc2n1C1CCCCC1 [6-bromo-1-cyclohexyl-1H-imidazo[4,5-b]pyrazin-2-ol] | –
6.0 µM | CC(C)n1c(O)nc2ncc(Br)nc21 [6-bromo-1-isopropyl-1H-imidazo[4,5-b]pyrazin-2-ol] | –
0.3 µM | CC[C@H](CN1CCOCC1)n1c(O)nc2ncc(Br)nc21 [(R)-6-bromo-1-(1-morpholinobutan-2-yl)-1H-imidazo[4,5-b]pyrazin-2-ol] | –
43.8 µM | CCC(CN(C)C)n1c(O)nc2ncc(Br)nc21 (stereo not shown) [6-bromo-1-(1-(dimethylamino)butan-2-yl)-1H-imidazo[4,5-b]pyrazin-2-ol] | –
0.45 µM | C[C@@H](c1ccccc1)n1c(O)nc2ncc(Br)nc21 [(S)-6-bromo-1-(1-phenylethyl)-1H-imidazo[4,5-b]pyrazin-2-ol] | –
2.4 µM | C=Cc1cnc2nc(O)n([C@@H](C)c3ccccc3)c2n1 [(S)-1-(1-phenylethyl)-6-vinyl-1H-imidazo[4,5-b]pyrazin-2-ol] | –
0.7 µM | CCC(CC)n1c(O)nc2ncc(Cl)nc21 [6-chloro-1-(ethylpropyl)imidazo[4,5-b]pyrazin-2-ol] | –
4.6 µM | C/C=C\c1cnc2nc(O)n(C(C)C)c2n1 [(Z)-1-isopropyl-6-(prop-1-enyl)-1H-imidazo[4,5-b]pyrazin-2-ol] | –
0.9^† μM | CCC(CN1CCN(C(=O)OC)CC1)n1c(O)nc2ncc(Br)nc21 (stereo not shown) [methyl 4-(2-(6-bromo-2-hydroxy-1H-imidazo[4,5-b]pyrazin-1-yl)butyl)piperazine-1-carboxylate] | –
15 µM | 1-(ethylpropyl)-6-(1-methylpyrazol-4-yl)imidazo[4,5-b]pyrazin-2-ol | –
46.64 µM | 6-(1H-1,2,3-triazol-4-yl)-1-(ethylpropyl)imidazo[4,5-b]pyrazin-2-ol | –
7.1 µM | C/C=C/c1cnc2nc(O)n(C(C)C)c2n1 [(E)-1-isopropyl-6-(prop-1-enyl)-1H-imidazo[4,5-b]pyrazin-2-ol] | –
2.2^‡ μM | CCC(CC)n1c(O)nc2ncc(OC)nc21 [6-methoxy-1-(pentan-3-yl)-1H-imidazo[4,5-b]pyrazin-2-ol] | SKM MF AC1.4 (SKM MF; listed as 1-(ethylpropyl)-6-methoxyimidazo[4,5-b]pyrazin-2-ol): 2.20 µM; SKM MF AC1.4 (SKM MF; listed as 6-methoxy-1-(pentan-3-yl)-1H-imidazo[4,5-b]pyrazin-2(3H)-one): 2.2^‡ μM
3.1 µM | CCC/C=C\Cc1cnc2nc(O)n([C@@H](C)c3ccccc3)c2n1 [(S,Z)-6-(hex-2-enyl)-1-(1-phenylethyl)-1H-imidazo[4,5-b]pyrazin-2-ol] | –
2.7 µM | CC(C)=Cc1cnc2nc(O)n([C@@H](C)c3ccccc3)c2n1 [(S)-6-(2-methylprop-1-enyl)-1-(1-phenylethyl)-1H-imidazo[4,5-b]pyrazin-2-ol] | –
2.4 µM | C[C@H](c1ccccc1)n1c(O)nc2ncc(Br)nc21 [(R)-6-bromo-1-(1-phenylethyl)-1H-imidazo[4,5-b]pyrazin-2-ol] | –
2.9 µM | CSc1cnc2nc(O)n([C@H](C)c3ccccc3)c2n1 [(R)-6-(methylthio)-1-(1-phenylethyl)-1H-imidazo[4,5-b]pyrazin-2-ol] | –

Further lines, the molecule ahead of its results:

Molecule | SKM MF AC1.4 (SKM MF) | other results
C/C=C/c1cnc2nc(O)n(C(CC)CC)c2n1 [(E)-1-(pentan-3-yl)-6-(prop-1-enyl)-1H-imidazo[4,5-b]pyrazin-2-ol] | 0.4 µM | –
CC(C)C[C@H](CN1CCOCC1)n1c(O)nc2ncc(Br)nc21 [1-[(1R)-3-methyl-1-(morpholin-4-ylmethyl)butyl]-6-bromoimidazo[4,5-b]pyrazin-2-ol] | 0.5 µM | –
6-ethyl-1-(ethylpropyl)imidazo[4,5-b]pyrazin-2-ol | 8.58 µM | –
C=Cc1cnc2nc(O)n(C(CC)CC)c2n1 [1-(ethylpropyl)-6-vinylimidazo[4,5-b]pyrazin-2-ol] | 2.3 µM | –
6-bromo-1-(propylbutyl)imidazo[4,5-b]pyrazin-2-ol | 0.7 µM | –
CCC(CC)n1c(O)nc2ncc(O)nc21 [1-(pentan-3-yl)-1H-imidazo[4,5-b]pyrazine-2,6-diol] | >49 µM | –
CN(C)C(=O)Oc1cccc([N+](C)(C)C)c1 [neostigmine] | – | forelimb grip strength (FIG. 2) [1]: increased forelimb grip strength
CSc1cnc2nc(O)n(C(C)C)c2n1 [1-isopropyl-6-(methylthio)-1H-imidazo[4,5-b]pyrazin-2-ol] | 6.7 µM | –
CSc1cnc2nc(O)n(Cc3ccccc3)c2n1 [1-benzyl-6-(methylthio)-1H-imidazo[4,5-b]pyrazin-2-ol] | 22.6 µM | –
Oc1nc2ncc(Br)nc2n1Cc1ccccc1 [1-benzyl-6-bromo-1H-imidazo[4,5-b]pyrazin-2-ol] | 23.5 µM | –
CCC(CN1CCOCC1)n1c(O)nc2nccnc21 (stereo not shown) [1-(1-morpholinobutan-2-yl)-1H-imidazo[4,5-b]pyrazin-2-ol] | >49 µM | –
CCC(C(=O)O)n1c(O)nc2ncc(Br)nc21 (stereo not shown) [2-(6-bromo-2-hydroxy-1H-imidazo[4,5-b]pyrazin-1-yl)butanoic acid] | >49 µM | –
C#Cc1cnc2nc(O)n([C@H](CC)CN3CCOCC3)c2n1 [1-[(1R)-1-(morpholin-4-ylmethyl)propyl]-6-ethynylimidazo[4,5-b]pyrazin-2-ol] | 0.13 µM | –
